Laboratory results taken from ChEMBL document CHEMBL1150582, “Brominated labdane-type diterpenoids from an Okinawan Laurencia sp” (J Nat Prod, 2002).
Activity calls are given as the source filed them.

Legend:
Type in all cases: functional, organism-based
[1] = system: Staphylococcus epidermidis; test: Antibacterial activity against Staphylococcus epidermidis by paper disk diffusion method
Escherichia coli = test: Antibacterial activity against Escherichia coli by paper disk diffusion method
Staphylococcus aureus = test: Antibacterial activity against Staphylococcus aureus by paper disk diffusion method
Salmonella sp. = test: Antibacterial activity against Salmonella sp. by paper disk diffusion method
Pseudomonas sp. = test: Antibacterial activity against Pseudomonas sp. by paper disk diffusion method

Measured: Activity

C=C[C@@]1(C)CC[C@H]2[C@]3(C)[C@@H](OC(C)=O)C[C@@H](Br)C(C)(C)[C@H]3[C@@H](O)C[C@]2(C)O1
inactive: [1] | Escherichia coli | Staphylococcus aureus | Salmonella sp. | Pseudomonas sp.

C=C[C@@]1(C)CC[C@H]2[C@]3(C)C(=O)C[C@@H](Br)C(C)(C)[C@H]3[C@@H](O)C[C@]2(C)O1
inactive: [1] | Escherichia coli | Staphylococcus aureus | Salmonella sp. | Pseudomonas sp.
